Source: patent publication US4175125A, “Method for treating methicillin resistant staphylococcus aureus” (Eli Lilly and Company, priority 1978, dated 1979)
Counter-ions that a name gives are not always drawn. Like-named read-outs stand apart in the source and are kept apart here.

Key:
[1] = system: methicillin-resistant Staphylococcus aureus; assay: Gradient plate test (MIC) against methicillin-resistant Staphylococcus aureus; format: cell-based; conditions: Staphylococcus aureus, read-out: minimum inhibitory concentration (MIC)
Experimental: The method used is essentially that described by Bryson and Szybalski in 1952 (Science 116:45-46). The inoculum treatment method used for penicillin resistant Staphylococci was reported by Godzeski et al in Antimicrobial Agents and Chemotherapy, May, 1969, pp. 547-554.
A standard Falcon square plastic petri dish is used. A layer of agar (10 ml.) is poured into one of the square dishes, the dish tipped 5 mm. off the horizontal, and the agar layer allowed to harden in this position. This bottom layer of agar contains the antibiotic, the serum, and/or other material to be tested. The medium is Difco Penassay Agar containing 2 percent agar. We routinely used 4 ml. of human or horse serum for "serum-inactivation" testing. […] Therefore, serum is routinely added only to the bottom layer.
After the bottom, slanted layer of agar medium has hardened, the plate is placed flat and another 10 ml. of medium added and allowed to harden.
The inoculum of resistant Staphylococci, as described, is prepared by diluting the water suspension 1/50 in 0.25 percent agar in sterile water or saline. For Gram negative organisms, an overnight broth culture is diluted 1/50 in the 0.25 percent agar-water. This dilution is thoroughly shaken to evenly suspend the bacteria. To streak the plate, we use a 1 ml. pipet containing an aliquot of the final […] agar dilution. After a little practice, a smooth even stroke of inoculum can be laid down very rapidly. The trick is in the smoothness of the streak--it must be accomplished uniformly and quickly.
After 24 hours incubation at 35°-37° C. the plates are read by simply measuring the length of bacterial growth as a percentage of the entire streak distance which is then converted to the percent of antibiotic concentration in the plate.
Average values of duplicate measurements are calculated and the M.I.C.'s reported are average of 2 streaks on the plate and from 2 to 3 duplicate plates. Eight streaks can be easily placed on each plate. If sharp end points are not obtained, the middle concentration between the beginning of inhibition of the streak to the end of growth is measured. The concentration of the antibiotic under examination is varied from plate to plate in a series as follows: […]
This method of screening penicillins and cephalosporins is quite satisfactory. Control plates containing penicillin and staphcillin or prostaphlin, or other control antibiotic, are used daily for the resistant staphylococcal activity screen. The gradient plate method has shown differences between antibiotics that were not apparent by any other methods of screening. […] We believe that the gradient plate screen is more sensitive to small differences between related antibiotics than other methods and pictures of the plates can provide a permanent record. The method also lends itself readily to modification of specific purposes--e.g., cross gradients.
The compounds listed below are examples of compounds useful in the method of this invention. After the compound name there is given in parentheses, where tested, the minimum inhibitory concentrations (MIC) in micrograms per milliliter (μg/ml) for the compound in the above described gradient plate procedure test against methicillin-resistant Staphylococcus aureus, (in the absence of blood serum/in the presence of 20 percent blood serum).
and pharmaceutically acceptable salts thereof. The abbreviation "s.z." means skip zones.

[2] = system: Streptococcus pyogenes, strain C203; assay: Streptococcus pyogenes infection in mice, median effective dose (Example 12); format: in vivo; conditions: infecting challenge 27.9 (XLD50), read-out: ED50
Experimental: The compound 7-[2"-(3"-chloro-4"-fluorophenyltio)acetamido]cephalosporanic acid, prepared as described in Example 8, was tested for antibiotic effectiveness against Streptococcus pyogenes, strain C203 infections in mice, and is compared with the effectiveness of cephaloridine in the same test. Experience has shown with other compounds, some of which are now commercial antibiotics, that a compound effective against Streptococcus pyrogenes, strain C203 in this test will be effective against Staphylococcus aureus strains in clinical use. This is intended as further evidence that the compounds of the method of this invention should be effective antibiotics in clinical situations.
In this test, a standard in vivo test method described by Wick, W. E., F. Streightoff, and D. H. Holmes. 1961, in J. Bacteriol., 81: 233-235 was used. The oral and subcutaneous median effective doses (ED50) necessary to cure 50 percent of the mice were calculated according to the method of Reed and Muench (Reed, L. J., and H. Meunch. 1938. Am. J. Hyg. 27: 493-497) The results were as follows: […]

Structure (SMILES): CC(=O)OCC1=C(C(=O)O)N2C(=O)C(NC(=O)CSc3ccc(F)c(Cl)c3)C2SC1 (stereo not shown) [Example 8, 7-(3'-chloro-4-fluorophenylthioacetamido)cephalosporanic acid, sodium salt]
- MIC ([1]; in the absence of blood serum): 9.3 µg/mL
- MIC ([1]; in the presence of 20 percent blood serum): 12.2 µg/mL
- ED50 ([2]; C203, oral): 7 mg/kg
- ED50 ([2]; C203, sc, subcut): < 0.21 mg/kg
